# Results as given in PubChem BioAssay (NCI).
#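 48-hour exposure; five concentrations; linearly interpolated endpoints. Abbreviation: GI50, concentration required for 50% inhibition of growth. At the TGI there is no net growth.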
# Experiments:
# Assay in all cases: NCI-60 cell line screen, 48 h
# [1] = tested on: NCI-H522 lung
# [2] = tested on: M14 melanoma
# [3] = tested on: EKVX NSCLC
# [4] = tested on: LOX IMVI melanoma
# [5] = tested on: NCI/ADR-RES ovarian
# [6] = tested on: UACC-62 melanoma
# [7] = tested on: TK-10 renal
# [8] = tested on: UACC-257 melanoma
# [9] = tested on: SN12C renal
# [10] = tested on: U251 CNS
# [11] = tested on: NCI-H23 lung
# [12] = tested on: BT-549 breast
# [13] = tested on: A549 NSCLC
# [14] = tested on: SW-620 colon
# [15] = tested on: UO-31 renal
# [16] = tested on: T-47D breast
# [17] = tested on: HL-60(TB) leukemia
# [18] = tested on: HT29 colon
# [19] = tested on: HOP-62 NSCLC
# [20] = tested on: HOP-92 NSCLC
# [21] = tested on: COLO 205 colon
# [22] = tested on: MDA-MB-435
# [23] = tested on: RPMI-8226 leukemia
# [24] = tested on: 786-0 renal
# [25] = tested on: OVCAR-5 ovarian
# [26] = tested on: CCRF-CEM leukemia
# [27] = tested on: SR leukemia
# [28] = tested on: HS 578T breast
# [29] = tested on: SK-MEL-2 melanoma
# [30] = tested on: DU-145 prostate
# [31] = tested on: MCF7 breast
# [32] = tested on: OVCAR-4 ovarian
# [33] = tested on: HCT-15 colon
# [34] = tested on: OVCAR-8 ovarian
# [35] = tested on: SK-OV-3 ovarian
# [36] = tested on: K-562 leukemia
# [37] = tested on: SF-268 CNS
# [38] = tested on: SK-MEL-28 melanoma
# [39] = tested on: KM12 colon
# [40] = tested on: HCT-116 colon
# [41] = tested on: HCC-2998 colon
# [42] = tested on: SNB-19 CNS
# [43] = tested on: SF-295 CNS
# [44] = tested on: IGROV1 ovarian
# [45] = tested on: NCI-H226 lung
# [46] = tested on: RXF 393 renal
# [47] = tested on: MALME-3M melanoma
# [48] = tested on: A498 renal
# [49] = tested on: CAKI-1 renal
# [50] = tested on: ACHN renal
# [51] = tested on: MDA-MB-231 breast
# [52] = tested on: PC-3 prostate
# [53] = tested on: MOLT-4 leukemia
# [54] = tested on: NCI-H460 lung
# [55] = tested on: SF-539 CNS
# [56] = tested on: SNB-75 CNS
# [57] = tested on: SK-MEL-5 melanoma
structure (smiles),measurement,setting,value
C#Cc1ccc(C(=O)NCc2ccc(/C=C/C(=O)c3nccn3C)cc2)cc1,GI50,[1],6.16 µM
same,TGI,[1],> 14.3 µM
same,GI50,[2],7.91 µM
same,TGI,[2],> 14.3 µM
same,GI50,[3],5.22 µM
same,TGI,[3],> 14.3 µM
same,GI50,[4],0.543 µM
same,TGI,[4],2.4 µM
same,GI50,[5],3.67 µM
same,TGI,[5],> 14.3 µM
same,GI50,[6],6.27 µM
same,TGI,[6],> 14.3 µM
same,GI50,[7],5.42 µM
same,TGI,[7],> 14.3 µM
same,GI50,[8],> 14.3 µM
same,TGI,[8],> 14.3 µM
same,GI50,[9],4.34 µM
same,TGI,[9],> 14.3 µM
same,GI50,[10],2.15 µM
same,TGI,[10],> 14.3 µM
same,GI50,[11],3.48 µM
same,TGI,[11],> 14.3 µM
same,GI50,[12],4.06 µM
same,TGI,[12],> 14.3 µM
same,GI50,[13],4.6 µM
same,TGI,[13],> 14.3 µM
same,GI50,[14],4.31 µM
same,TGI,[14],> 14.3 µM
same,GI50,[15],3.91 µM
same,TGI,[15],> 14.3 µM
same,GI50,[16],6 µM
same,TGI,[16],> 14.3 µM
same,GI50,[17],3.5 µM
same,TGI,[17],> 14.3 µM
same,GI50,[18],4.61 µM
same,TGI,[18],> 14.3 µM
same,GI50,[19],4.33 µM
same,TGI,[19],> 14.3 µM
same,GI50,[20],3.77 µM
same,TGI,[20],> 14.3 µM
same,GI50,[21],3.6 µM
same,TGI,[21],12.7 µM
same,GI50,[22],4.15 µM
same,TGI,[22],> 14.3 µM
same,GI50,[23],2.37 µM
same,TGI,[23],> 14.3 µM
same,GI50,[24],4.48 µM
same,TGI,[24],> 14.3 µM
same,GI50,[25],4.75 µM
same,TGI,[25],> 14.3 µM
same,GI50,[26],3.68 µM
same,TGI,[26],> 14.3 µM
same,GI50,[27],0.93 µM
same,TGI,[27],> 14.3 µM
same,GI50,[28],4.75 µM
same,TGI,[28],> 14.3 µM
same,GI50,[29],> 14.3 µM
same,TGI,[29],> 14.3 µM
same,GI50,[30],4.83 µM
same,TGI,[30],> 14.3 µM
same,GI50,[31],2.7 µM
same,TGI,[31],> 14.3 µM
same,GI50,[32],5.71 µM
same,TGI,[32],> 14.3 µM
same,GI50,[33],2.39 µM
same,TGI,[33],> 14.3 µM
same,GI50,[34],3.11 µM
same,TGI,[34],8.27 µM
same,GI50,[35],8.34 µM
same,TGI,[35],> 14.3 µM
same,GI50,[36],3.21 µM
same,TGI,[36],> 14.3 µM
same,GI50,[37],3.36 µM
same,TGI,[37],12.2 µM
same,GI50,[38],6.16 µM
same,TGI,[38],> 14.3 µM
same,GI50,[39],2.67 µM
same,TGI,[39],8.57 µM
same,GI50,[40],4.56 µM
same,TGI,[40],> 14.3 µM
same,GI50,[41],3.32 µM
same,TGI,[41],10.7 µM
same,GI50,[42],3.1 µM
same,TGI,[42],> 14.3 µM
same,GI50,[43],3.65 µM
same,TGI,[43],13.2 µM
same,GI50,[44],3.77 µM
same,TGI,[44],> 14.3 µM
same,GI50,[45],5.03 µM
same,TGI,[45],> 14.3 µM
same,GI50,[46],3.44 µM
same,TGI,[46],14.2 µM
same,GI50,[47],> 14.3 µM
same,TGI,[47],> 14.3 µM
same,GI50,[48],2.12 µM
same,TGI,[48],> 14.3 µM
same,GI50,[49],5.97 µM
same,TGI,[49],> 14.3 µM
same,GI50,[50],4.8 µM
same,TGI,[50],> 14.3 µM
same,GI50,[51],3.97 µM
same,TGI,[51],> 14.3 µM
same,GI50,[52],5.36 µM
same,TGI,[52],> 14.3 µM
same,GI50,[53],4.2 µM
same,TGI,[53],> 14.3 µM
same,GI50,[54],3.24 µM
same,TGI,[54],9.03 µM
same,GI50,[55],2.65 µM
same,TGI,[55],6.24 µM
same,GI50,[56],2.19 µM
same,TGI,[56],10.7 µM
same,GI50,[57],> 14.3 µM
same,TGI,[57],> 14.3 µM
